Reference: ChEMBL document CHEMBL5143628, “Enteroviral replication inhibition by N-Alkyl triazolopyrimidinone derivatives through a non-capsid binding mode” (Bioorg Med Chem Lett, 2022)

Tests used:
[1] = Antiviral activity against Human rhinovirus A71 infected in human H1-HeLa cells assessed as reduction in virus induced cytopathic effect incubated for 3 days by MTT assay; assay type: functional, cell-based; details: Rhinovirus A, H1-HeLa, 72 h
[2] = Selectivity index, ratio of CC50 for cytotoxicity against human H1-HeLa cells to EC50 for antiviral activity against Human rhinovirus A71 infected in human H1-HeLa cells; assay type: toxicity, cell-based; details: H1-HeLa cells, read-out: Ratio CC50/EC50
[3] = Selectivity index, ratio of CC50 for cytotoxicity against human H1-HeLa cells to EC50 for antiviral activity against Human rhinovirus A21 infected in human H1-HeLa cells; assay type: toxicity, cell-based; details: H1-HeLa cells, read-out: Ratio CC50/EC50
rhinovirus B14 = assay: Antiviral activity against Human rhinovirus B14 infected in human H1-HeLa cells assessed as reduction in virus induced cytopathic effect incubated for 3 days by MTT assay; assay type: functional, organism-based; details: Rhinovirus B, H1-HeLa, 72 h
[4] = Selectivity index, ratio of CC50 for cytotoxicity against human H1-HeLa cells to EC50 for antiviral activity against Human rhinovirus B14 infected in human H1-HeLa cells; assay type: toxicity, cell-based; details: H1-HeLa cells, read-out: Ratio CC50/EC50
rhinovirus A21 = assay: Antiviral activity against Human rhinovirus A21 infected in human H1-HeLa cells assessed as reduction in virus induced cytopathic effect incubated for 3 days by MTT assay; assay type: functional, organism-based; details: Rhinovirus A, H1-HeLa, 72 h
[5] = Cytotoxicity against human H1-HeLa cells assessed as reduction in cell viability by MTT assay; assay type: toxicity, cell-based; details: H1-HeLa cells
Coxsackievirus B1 = assay: Antiviral activity against Human coxsackievirus B1 infected in human H1-HeLa cells assessed as reduction in virus induced cytopathic effect incubated for 2 days by MTT assay; assay type: functional, organism-based; details: Enterovirus B, 48 h
Poliovirus 3 = assay: Antiviral activity against Human poliovirus 3 infected in human H1-HeLa cells assessed as reduction in virus induced cytopathic effect incubated for 2 days by MTT assay; assay type: functional, organism-based; details: Enterovirus C, 48 h

Compound | EC50 [1] [µM] | selectivity ratio [2] | selectivity ratio [3] | EC50 (rhinovirus B14) [µM] | selectivity ratio [4] | EC50 (rhinovirus A21) [µM] | CC50 [5] [µM] | EC50 (Coxsackievirus B1) [µM] | EC50 (Poliovirus 3) [µM]
CC(C)(C)C1CCc2c(sc3c2c(=O)n(-c2ccccc2)c2nncn32)C1 (stereo not drawn) | 2.3 | 8.1 | 3.6 | 5 | 3.7 | 5.1 | 18.7 | – | –
CCCCn1c(=O)c2c3c(sc2n2cnnc12)CC(C(C)(C)C)CC3 (stereo not drawn) | 2 | > 50 | – | 2.2 | > 45.4 | > 100 | > 100 | > 22.9 | 2.55
Cn1c(=O)c2c3c(sc2n2cnnc12)CC(C(C)(C)C)CC3 (stereo not drawn) | 23 | > 4.3 | – | > 100 | – | > 100 | > 100 | > 100 | > 100
CCCCCCn1c(=O)c2c3c(sc2n2cnnc12)CC(C(C)(C)C)CC3 (stereo not drawn) | > 100 | – | – | > 100 | – | > 100 | > 100 | – | –
CCn1c(=O)c2c3c(sc2n2cnnc12)CC(C(C)(C)C)CC3 (stereo not drawn) | 3.7 | > 27 | > 6.8 | 14.1 | > 7 | 14.7 | > 100 | > 100 | 3.8
CC(C)CCn1c(=O)c2c3c(sc2n2cnnc12)CC(C(C)(C)C)CC3 (stereo not drawn) | > 100 | – | – | > 100 | – | > 100 | > 100 | – | –
CC(C)(C)C1CCc2c(sc3c2c(=O)n(C2CC2)c2nncn32)C1 (stereo not drawn) | 4.3 | 8.2 | 4.6 | 15 | 2.3 | 7.7 | 35.5 | – | –
CC(C)Cn1c(=O)c2c3c(sc2n2cnnc12)CC(C(C)(C)C)CC3 (stereo not drawn) | 2.2 | > 45.4 | > 19.6 | 4.2 | > 23.8 | 5.1 | > 100 | – | –
